Measurements: patent US10051857B2, “Formulation component” (SYNGENTA LIMITED, priority 2011, dated 2018)

How the values were obtained:
Assay type in all cases: in vivo
Setaria viridis (SETVI) [1] = assay: Glasshouse adjuvant test with pinoxaden (Example 8); settings: pinoxaden 7.5 or 15 g/ha, adjuvant 0.2% v/v or none, 200 l/ha; growth stage 14; mean over two rates, three replicates, 14 and 21 days
Protocol: (§1) The adjuvant shown in example 1 was tested in a glasshouse against four weed species in combination with the herbicide pinoxaden. A 20% w/w stock emulsion of compound 1 was prepared additionally containing 2% w/w Gohsenol® GL03 and 2% w/w Pluronic® PE10500 as surfactants. Using this, an agrochemical composition was prepared containing 0.2% v/v of the adjuvant in a track sprayer and was applied at a volume of 200 liters per hectare. Pinoxaden was applied at either 7.5 or 15 grams of pesticide per hectare on each of the weed species. The weed species and their growth stage at spraying were Alopecurus myosuroides (ALOMY; growth stage 13), Avena fatua (AVEFA; growth stage 12); Lolium perenne (LOLPE; growth stage 13), Setaria viridis (SETVI; growth stage 14).
(§2) Each spray test was replicated three times. The efficacy of the herbicide was assessed visually and expressed as a percentage of the leaf area killed. Samples were assessed at time periods of 14 and 21 days following application. The results shown in Table 8 are mean averages over the two rates of pinoxaden, three replicates and the two assessment timings, and are compared to the efficacy of pinoxaden in the absence of adjuvant.

Avena fatua (AVEFA) = assay: as above; settings: pinoxaden 7.5 or 15 g/ha, adjuvant 0.2% v/v or none, 200 l/ha; growth stage 12; mean over two rates, three replicates, 14 and 21 days
Protocol: as §1, §2

[2] = test system: Alopecurus myosuroides (ALOMY); assay: as above; settings: pinoxaden 7.5 or 15 g/ha, adjuvant 0.2% v/v or none, 200 l/ha; growth stage 13; mean over two rates, three replicates, 14 and 21 days
Protocol: as §1, §2

Lolium perenne (LOLPE) = assay: as above; settings: pinoxaden 7.5 or 15 g/ha, adjuvant 0.2% v/v or none, 200 l/ha; growth stage 13; mean over two rates, three replicates, 14 and 21 days
Protocol: as §1, §2

[3] = test system: four weed species (ALOMY, AVEFA, LOLPE, SETVI); assay: Glasshouse adjuvant test with pinoxaden (Example 8), mean across species; settings: pinoxaden 7.5 or 15 g/ha, adjuvant 0.2% v/v or none
Protocol: as §1, §2

Setaria viridis (SETVI) [4] = assay: Glasshouse adjuvant test with fomesafen (Example 3); settings: fomesafen 60 or 120 g/ha, adjuvant 0.2% v/v or none, 200 l/ha; leaf area killed; mean over two rates, six replicates, 7 and 14 days
Protocol: (§3) Compound No. 2 was tested in a glasshouse against four weed species in combination with the herbicide fomesafen. An agrochemical composition was prepared containing 0.2% v/v of the adjuvant in a track sprayer and was applied at a volume of 200 liters per hectare. Fomesafen was applied at either 60 or 120 grams of pesticide per hectare on weeds which had been grown to the 1.3 or 1.4 leaf stage. The weed species were Chenopodium album (CHEAL), Abutilon theophrasti (ABUTH), Setaria viridis (SETVI), and Xanthium strumarium (XANST).
(§4) Each spray test was replicated six times. The efficacy of the herbicide was assessed visually and expressed as a percentage of the leaf area killed. Samples were assessed at time periods of 7 and 14 days following application. The results shown in Table 3 below are mean averages over the two rates of fomesafen, six replicates and the two assessment timings, and are compared to the efficacy of fomesafen in the absence of adjuvant.

[5] = test system: Abutilon theophrasti (ABUTH); assay: as above; settings: fomesafen 60 or 120 g/ha, adjuvant 0.2% v/v or none, 200 l/ha; leaf area killed; mean over two rates, six replicates, 7 and 14 days
Protocol: as §3, §4

[6] = test system: Chenopodium album (CHEAL); assay: as above; settings: fomesafen 60 or 120 g/ha, adjuvant 0.2% v/v or none, 200 l/ha; leaf area killed; mean over two rates, six replicates, 7 and 14 days
Protocol: as §3, §4

[7] = test system: Xanthium strumarium (XANST); assay: as above; settings: fomesafen 60 or 120 g/ha, adjuvant 0.2% v/v or none, 200 l/ha; leaf area killed; mean over two rates, six replicates, 7 and 14 days
Protocol: as §3, §4

[8] = test system: four weed species (CHEAL, ABUTH, SETVI, XANST); assay: Glasshouse adjuvant test with fomesafen (Example 5), mean across species; settings: fomesafen 60 or 120 g/ha, adjuvant 0.2% v/v or none
Protocol: (§5) Compound 1 (N, N-diethyl-3-methylbenzamide) was tested in a glasshouse against four weed species using the herbicide fomesafen. An agrochemical composition was prepared containing 0.2% v/v of the adjuvant in a track sprayer and was applied at a volume of 200 liters per hectare. Fomesafen was applied at either 60 or 120 grams of pesticide per hectare on each of the weed species. The weed species and their growth stage at spraying were Chenopodium album (CHEAL; growth stage 13/14), Abutilon theophrasti (ABUTH; growth stage 12), Setaria viridis (SETVI; growth stage 13), and Xanthium strumarium (XANST; growth stage 12).
(§6) Each spray test was replicated three times. The efficacy of the herbicide was assessed visually and expressed as a percentage of the leaf area killed. Samples were assessed at time periods of 7, 14 and 21 days following application. The results shown in Table 5 below are mean averages over the two rates of fomesafen, three replicates and the three assessment timings, and are compared to the efficacy of fomesafen in the absence of adjuvant.

[9] = test system: four weed species (ABUTH, CHEAL, SETVI, XANST); assay: Glasshouse adjuvant test with fomesafen (Example 3), mean across species; settings: fomesafen 60 or 120 g/ha, adjuvant 0.2% v/v or none
Protocol: as §3, §4

Setaria viridis (SETVI) [10] = assay: Glasshouse adjuvant test with fomesafen (Example 5); settings: fomesafen 60 or 120 g/ha, adjuvant 0.2% v/v or none, 200 l/ha; growth stage 13; mean over two rates, three replicates, 7, 14 and 21 days
Protocol: as §5, §6

[11] = test system: Abutilon theophrasti (ABUTH); assay: as above; settings: fomesafen 60 or 120 g/ha, adjuvant 0.2% v/v or none, 200 l/ha; growth stage 12; mean over two rates, three replicates, 7, 14 and 21 days
Protocol: as §5, §6

[12] = test system: Chenopodium album (CHEAL); assay: as above; settings: fomesafen 60 or 120 g/ha, adjuvant 0.2% v/v or none, 200 l/ha; growth stage 13/14; mean over two rates, three replicates, 7, 14 and 21 days
Protocol: as §5, §6

[13] = test system: Xanthium strumarium (XANST); assay: as above; settings: fomesafen 60 or 120 g/ha, adjuvant 0.2% v/v or none, 200 l/ha; growth stage 12; mean over two rates, three replicates, 7, 14 and 21 days
Protocol: as §5, §6

[14] = test system: Polygonum convolvulus (POLCO); assay: Glasshouse adjuvant test with mesotrione (Example 6); settings: mesotrione 45 or 90 g/ha, adjuvant 0.2% v/v or none, 200 l/ha; growth stage 11/11.5; mean over two rates, three replicates, 7, 14 and 21 days
Protocol: (§7) Compound 1 was tested in a glasshouse against four weed species using the herbicide mesotrione. A 20% w/w stock emulsion of compound 1 was prepared additionally containing 2% w/w Gohsenol® GL03 and 2% w/w Pluronic® PE10500 as surfactants. Using this, an agrochemical composition was prepared containing 0.2% v/v of the adjuvant in a track sprayer and was applied at a volume of 200 liters per hectare. Mesotrione was applied at either 45 or 90 grams of pesticide per hectare on each of the weed species. The weed species and their growth stage at spraying were Amaranthus tuberculatus (AMATE; growth stage 13/14), Brachiaria decumbens (BRADE; growth stage 13/14), Digitaria sanguinalis (DIGSA; growth stage 14), and Polygonum convolvulus (POLCO; growth stage 11/11.5).
as §6, with “Each” for “Each spray”, “6” for “5”, “mesotrione,” for “fomesafen,”, “mesotrione” for “fomesafen”, “in” for “in the”

[15] = test system: Brachiaria decumbens (BRADE); assay: as above; settings: mesotrione 45 or 90 g/ha, adjuvant 0.2% v/v or none, 200 l/ha; growth stage 13/14; mean over two rates, three replicates, 7, 14 and 21 days
Protocol: as §7
as §6, with “Each” for “Each spray”, “6” for “5”, “mesotrione,” for “fomesafen,”, “mesotrione” for “fomesafen”, “in” for “in the”

[16] = test system: Digitaria sanguinalis (DIGSA); assay: as above; settings: mesotrione 45 or 90 g/ha, adjuvant 0.2% v/v or none, 200 l/ha; growth stage 14; mean over two rates, three replicates, 7, 14 and 21 days
Protocol: as §7
as §6, with “Each” for “Each spray”, “6” for “5”, “mesotrione,” for “fomesafen,”, “mesotrione” for “fomesafen”, “in” for “in the”

[17] = test system: Amaranthus tuberculatus (AMATE); assay: as above; settings: mesotrione 45 or 90 g/ha, adjuvant 0.2% v/v or none, 200 l/ha; growth stage 13/14; mean over two rates, three replicates, 7, 14 and 21 days
Protocol: as §7
as §6, with “Each” for “Each spray”, “6” for “5”, “mesotrione,” for “fomesafen,”, “mesotrione” for “fomesafen”, “in” for “in the”

[18] = test system: four weed species (AMATE, BRADE, DIGSA, POLCO); assay: Glasshouse adjuvant test with mesotrione (Example 6), mean across species; settings: mesotrione 45 or 90 g/ha, adjuvant 0.2% v/v or none
Setaria viridis (SETVI) [19] = assay: Glasshouse adjuvant test with nicosulfuron (Example 7); settings: nicosulfuron 30 or 60 g/ha, adjuvant 0.2% v/v or none, 200 l/ha; growth stage 13; mean over two rates, three replicates, 14 and 21 days
Protocol: (§8) Compound 1 was tested in a glasshouse against four weed species using the herbicide nicosulfuron. A 20% w/w stock emulsion of compound 1 was prepared additionally containing 2% w/w Gohsenol® GL03 and 2% w/w Pluronic® PE10500 as surfactants. Using this, an agrochemical composition was prepared containing 0.2% v/v of the adjuvant in a track sprayer and was applied at a volume of 200 liters per hectare. Nicosulfuron was applied at either 30 or 60 grams of pesticide per hectare on each of the weed species. The weed species and their growth stage at spraying were Abutilon theophrasti (ABUTH; growth stage 13), Chenopodium album (CHEAL; growth stage 14), Digitaria sanguinalis (DIGSA; growth stage 13), and Setaria viridis (SETVI; growth stage 13).
(§9) Each spray test replicated three times. The efficacy of the herbicide was assessed visually and expressed as a percentage of the leaf area killed. Samples were assessed at time periods of 14 and 21 days following application. The results shown in Table 7 below are mean averages over the two rates of nicosulfuron, three replicates and the two assessment timings, and are compared to the efficacy of nicosulfuron in the absence of an adjuvant.

[20] = test system: Abutilon theophrasti (ABUTH); assay: as above; settings: nicosulfuron 30 or 60 g/ha, adjuvant 0.2% v/v or none, 200 l/ha; growth stage 13; mean over two rates, three replicates, 14 and 21 days
Protocol: as §8, §9

[21] = test system: Chenopodium album (CHEAL); assay: as above; settings: nicosulfuron 30 or 60 g/ha, adjuvant 0.2% v/v or none, 200 l/ha; growth stage 14; mean over two rates, three replicates, 14 and 21 days
Protocol: as §8, §9

[22] = test system: Digitaria sanguinalis (DIGSA); assay: as above; settings: nicosulfuron 30 or 60 g/ha, adjuvant 0.2% v/v or none, 200 l/ha; growth stage 13; mean over two rates, three replicates, 14 and 21 days
Protocol: as §8, §9

[23] = test system: four weed species (ABUTH, CHEAL, DIGSA, SETVI); assay: Glasshouse adjuvant test with nicosulfuron (Example 7), mean across species; settings: nicosulfuron 30 or 60 g/ha, adjuvant 0.2% v/v or none
Protocol: as §8, §9

CCc1cc(C)cc(CC)c1-c1c(OC(=O)C(C)(C)C)n2n(c1=O)CCOCC2 [Pinoxaden, pinoxaden, reference compound]
Mean percentage kill SETVI (Setaria viridis (SETVI) [1]): 15% | Mean percentage kill AVEFA (Avena fatua (AVEFA)): 20.8% | Mean percentage kill ALOMY [2]: 21.2% | Mean percentage kill LOLPE (Lolium perenne (LOLPE)): 12.5% | Mean percentage kill, Mean across species [3]: 17.4%

CS(=O)(=O)NC(=O)c1cc(Oc2ccc(C(F)(F)F)cc2Cl)ccc1[N+](=O)[O-] [fomesafen, reference compound]
Mean percentage kill SETVI (Setaria viridis (SETVI) [4]): 38.2% | Mean percentage kill ABUTH [5]: 60.8% | Mean percentage kill CHEAL [6]: 43.3% | Mean percentage kill XANST [7]: 45.8% | Mean percentage kill, Mean across species [8]: 37.7% | Mean percentage kill, Mean across species [9]: 47.0% | Mean percentage kill SETVI (Setaria viridis (SETVI) [10]): 10.6% | Mean percentage kill ABUTH [11]: 20% | Mean percentage kill CHEAL [12]: 77.5% | Mean percentage kill XANST [13]: 42.8%

CS(=O)(=O)c1ccc(C(=O)C2C(=O)CCCC2=O)c([N+](=O)[O-])c1 [mesotrione, reference compound]
Mean percentage kill POLCO [14]: 73.3% | Mean percentage kill BRADE [15]: 26.7% | Mean percentage kill DIGSA [16]: 23% | Mean percentage kill AMATE [17]: 65.6% | Mean percentage kill, Mean across species [18]: 47.1%

COc1cc(OC)nc(NC(=O)NS(=O)(=O)c2ncccc2C(=O)N(C)C)n1 [nicosulfuron, reference compound]
Mean percentage kill SETVI (Setaria viridis (SETVI) [19]): 92% | Mean percentage kill ABUTH [20]: 69.2% | Mean percentage kill CHEAL [21]: 50.8% | Mean percentage kill DIGSA [22]: 87.9% | Mean percentage kill, Mean across species [23]: 75%
